Experimental data published in patent US9814734B2, “Bufalin liposome, preparation method therefor and application thereof” (THE FOURTH MILITARY MEDICAL UNIVERSITY, priority 2012, dated 2017).

How the values were obtained:
Experiment in all cases: Growth inhibition on tumor cells (MTT)
Format in all cases: cell-based
[1] = tested on: liver cancer HepG2 cells; conditions: Homo sapiens
Method: (§1) The cells of human cervical carcinoma Hela, lung cancer A549, gastric cancer SGC7901, liver cancer HepG2, myeloid leukemia HL-60 and colon cancer SW1116 are cultured in DMEM or RPMI 1640 medium (containing 10% inactived fetal bovine serum, 100 U·ml^−1 penicillin and 100 mg·l^−1 streptomycin) in a humidified 5% CO2 atmosphere at […]. The cells in logarithmic phase are collected, inoculated into 96-well plate at a density of 3×10^3/well (each well of 100 μl), and cultured for 24 h under 37° C., 5% CO2 and saturated humidity condition. A negative control group (culture solution) and administration groups with different concentrations are set up for the test. 1-300 nmol/1 bufalin or bufalin liposome (prepared according to the method of Example 1) is added into each culture well, followed by culturing in an incubator under 37° C., 5% CO2 and saturated humidity for 48 h, adding 20 μl of MTT solution (5 g/l) into each well, culturing for 4 h, and centrifuging. The supernatant was aspirated, and 150 μl dimethyl sulfoxide (DMSO) is added to each well and slightly shaking to dissolve crystal. The OD values are measured at 570 nm by an automatic microplate reader, and the cell growth inhibition rates are calculated according to following formula: cell growth inhibition rate/%=100−(OD value of administration group-OD value of blank control group)/(OD value of control group-OD value of bland control group)×100. IC50 (drug concentration at 50% inhibition on cell proliferation) value is calculated using mathematical method. Data are expressed as X±SEM. Statistical significance (P<0.05) for each variable is estimated by Student's t-test or ANOVA analysis.

[2] = tested on: lung cancer A549 cells; conditions: Homo sapiens
Method: as §1

[3] = tested on: myeloid leukemia HL-60 cells; conditions: Homo sapiens
Method: as §1

[4] = tested on: human cervical carcinoma Hela cells; conditions: 48 h
Method: as §1

[5] = tested on: gastric cancer SGC7901 cells; conditions: Homo sapiens
Method: as §1

## C[C@]12CC[C@H](O)C[C@H]1CC[C@@H]1[C@@H]2CC[C@]2(C)[C@@H](c3ccc(=O)oc3)CC[C@]12O [bufalin, 3β,14-dihydroxy-5β, 20(22)-bufadienolide]
[1]; HepG2, 1 nmol/l, 48 h, read-out: Inhibition rate (%)
  inhibition at 0.001 µM: 5.3 ± 2.2%
[1]; HepG2, 3 nmol/l, 48 h, read-out: Inhibition rate (%)
  inhibition at 0.003 µM: 6.1 ± 2.3%
[1]; HepG2, 10 nmol/l, 48 h, read-out: Inhibition rate (%)
  inhibition at 0.01 µM: 30.2 ± 2.9%
[1]; HepG2, 30 nmol/l, 48 h, read-out: Inhibition rate (%)
  inhibition at 0.03 µM: 49.8 ± 8.3%
[1]; HepG2, 100 nmol/l, 48 h, read-out: Inhibition rate (%)
  inhibition at 0.1 µM: 69.8 ± 7.5%
[1]; HepG2, 300 nmol/l, 48 h, read-out: Inhibition rate (%)
  inhibition at 0.3 µM: 87.7 ± 9.6%
[1]; HepG2, 48 h
  IC50: 33 nM
[2]; A549, 1 nmol/l, 48 h, read-out: Inhibition rate (%)
  inhibition at 0.001 µM: 2 ± 0.2%
[2]; A549, 3 nmol/l, 48 h, read-out: Inhibition rate (%)
  inhibition at 0.003 µM: 8.5 ± 1%
[2]; A549, 10 nmol/l, 48 h, read-out: Inhibition rate (%)
  inhibition at 0.01 µM: 25.3 ± 3.8%
[2]; A549, 30 nmol/l, 48 h, read-out: Inhibition rate (%)
  inhibition at 0.03 µM: 44.2 ± 7.1%
[2]; A549, 100 nmol/l, 48 h, read-out: Inhibition rate (%)
  inhibition at 0.1 µM: 52.3 ± 8.3%
[2]; A549, 300 nmol/l, 48 h, read-out: Inhibition rate (%)
  inhibition at 0.3 µM: 63.8 ± 7.9%
[2]; A549, 48 h
  IC50: 78.8 nM
[3]; HL60, 1 nmol/l, 48 h, read-out: Inhibition rate (%)
  inhibition at 0.001 µM: 1.6 ± 0.1%
[3]; HL60, 3 nmol/l, 48 h, read-out: Inhibition rate (%)
  inhibition at 0.003 µM: 4.4 ± 0.7%
[3]; HL60, 10 nmol/l, 48 h, read-out: Inhibition rate (%)
  inhibition at 0.01 µM: 33.8 ± 6.1%
[3]; HL60, 30 nmol/l, 48 h, read-out: Inhibition rate (%)
  inhibition at 0.03 µM: 52.4 ± 8%
[3]; HL60, 100 nmol/l, 48 h, read-out: Inhibition rate (%)
  inhibition at 0.1 µM: 88.7 ± 9.8%
[3]; HL60, 300 nmol/l, 48 h, read-out: Inhibition rate (%)
  inhibition at 0.3 µM: 98 ± 10.2%
[3]; HL60, 48 h
  IC50: 21.1 nM
[4]; 1 nmol/l, read-out: Inhibition rate (%)
  inhibition at 0.001 µM: 3.8 ± 2%
[4]; 3 nmol/l, read-out: Inhibition rate (%)
  inhibition at 0.003 µM: 9.6 ± 8.2%
[4]; 10 nmol/l, read-out: Inhibition rate (%)
  inhibition at 0.01 µM: 33.9 ± 4.5%
[4]; 30 nmol/l, read-out: Inhibition rate (%)
  inhibition at 0.03 µM: 56.3 ± 8.2%
[4]; 100 nmol/l, read-out: Inhibition rate (%)
  inhibition at 0.1 µM: 90.3 ± 10.7%
[4]; 300 nmol/l, read-out: Inhibition rate (%)
  inhibition at 0.3 µM: 95.1 ± 6.9%
[4]
  IC50: 17.1 nM
[5]; SGC-7901, 1 nmol/l, 48 h, read-out: Inhibition rate (%)
  inhibition at 0.001 µM: 3.1 ± 0.5%
[5]; SGC-7901, 3 nmol/l, 48 h, read-out: Inhibition rate (%)
  inhibition at 0.003 µM: 3.9 ± 0.8%
[5]; SGC-7901, 10 nmol/l, 48 h, read-out: Inhibition rate (%)
  inhibition at 0.01 µM: 23.7 ± 3.6%
[5]; SGC-7901, 30 nmol/l, 48 h, read-out: Inhibition rate (%)
  inhibition at 0.03 µM: 45.9 ± 6.5%
[5]; SGC-7901, 100 nmol/l, 48 h, read-out: Inhibition rate (%)
  inhibition at 0.1 µM: 85.6 ± 10.2%
[5]; SGC-7901, 300 nmol/l, 48 h, read-out: Inhibition rate (%)
  inhibition at 0.3 µM: 97.9 ± 11.3%
[5]; SGC-7901, 48 h
  IC50: 23.5 nM
